From patent US4242335A, “Novel 17α-aryl-steroids” (Roussel Uclaf, priority 1977, dated 1980)

Legend:
[1] = target: T1, uterine reception of progesterone (Oryctolagus cuniculus, UniProt P06186); assay: Progestomimetic activity by hormonal receptor method (displacement of tritiated product R in rabbit uterus cytosol); type: binding; conditions: for activity weaker than progesterone: from Table I; for progestomimetic activity (in words): conclusion from Table I; for relative affinity of the test product (ARL), progestomimetic: rabbit uterus cytosol, 0° C., 2 hours, progesterone = 100
T1 construct: from tissue; host or cells: uterus cytosol (105,000 g supernatant) of immature rabbits primed with estradiol
T1 sequence (P06186 1-930): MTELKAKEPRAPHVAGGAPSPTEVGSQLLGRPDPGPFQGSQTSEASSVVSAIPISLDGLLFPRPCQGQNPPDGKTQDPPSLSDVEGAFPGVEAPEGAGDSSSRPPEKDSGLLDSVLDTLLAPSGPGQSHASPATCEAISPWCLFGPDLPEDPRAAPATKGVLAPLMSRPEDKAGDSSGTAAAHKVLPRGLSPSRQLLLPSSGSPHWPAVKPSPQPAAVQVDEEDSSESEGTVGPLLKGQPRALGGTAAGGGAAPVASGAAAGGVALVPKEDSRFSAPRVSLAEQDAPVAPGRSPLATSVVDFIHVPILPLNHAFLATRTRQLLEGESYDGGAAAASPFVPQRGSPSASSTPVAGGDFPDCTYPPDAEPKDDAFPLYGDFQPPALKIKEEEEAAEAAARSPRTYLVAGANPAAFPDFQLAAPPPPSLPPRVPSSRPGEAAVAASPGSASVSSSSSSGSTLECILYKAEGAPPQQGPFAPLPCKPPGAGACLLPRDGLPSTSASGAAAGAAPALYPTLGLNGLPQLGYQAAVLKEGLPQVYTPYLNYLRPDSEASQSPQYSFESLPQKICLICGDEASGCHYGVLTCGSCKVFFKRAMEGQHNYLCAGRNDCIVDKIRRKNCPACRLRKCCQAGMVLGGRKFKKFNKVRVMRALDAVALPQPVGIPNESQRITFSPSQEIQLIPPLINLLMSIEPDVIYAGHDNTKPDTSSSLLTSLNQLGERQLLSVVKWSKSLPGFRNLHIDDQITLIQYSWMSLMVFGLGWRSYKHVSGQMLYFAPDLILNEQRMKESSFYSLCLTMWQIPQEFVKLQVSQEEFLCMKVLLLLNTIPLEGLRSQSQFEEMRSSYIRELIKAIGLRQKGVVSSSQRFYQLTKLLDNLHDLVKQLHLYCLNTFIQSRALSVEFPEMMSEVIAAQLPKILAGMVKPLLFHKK
Description: The progestomimetic activity was determined by the hormonal receptor method of Raynaud et al [J. Ster. Biochem., Vol. 6 (1975), p-615-622 and Physiology and Genetics of Reproduction, part A (1975), p. 143-160]. Immature rabbits received subcutaneously 25γ of estradiol and 5 days later, the animals were sacrificed and the uterus was removed and homogenized in a buffered solution of 10 mM of tromethamine, 0.25 M of saccharose and a pH of 7.4 with hydrochloric acid. The homogenate was centrifuged at 105,000 g during one hour and the surnageant or cytosol was adjusted to a dilution of 1/50 (weight/volume). The resulting solution was incubated at 0° C. for 2 hours in tubes with the same volume of cytosol with a fixed concentration of tritiated 17,21-dimethyl-19-nor-Δ^4,9 -pregnadiene-3-20-dione (designated as tritiated Product R) in the presence or not of an increasing concentration of radioinactive 17,21-dimethyl-19-nor-Δ^4,9 -pregnadiene-3,20-dione (designated as cold product R) or progesterone or the test product. The radioactivity of the tritiated product R was determined after 2 hours by the technique of adsorption on carbon-dextran (1.25-0.625%). The curves representing the percentage of tritiated product R as a function of the log of the concentration, of cold product R, of progresterone or the test products and the I50 straight line parallel to the axis of the abcissess and ordinates [formula] were ploted. B/T max. is the percentage of tied tritiated product R when the product is not added and B/T min. is the percentage of tied tritiated product R when the maximum amount of cold product R is added. The intersections of these I50 straight lines and the curves permit the determination of the values: CP and CX: CP - concentration of cold progesterone which inhibits by 50% the fixation of the tritiated product R and CX - concentration of test product which inhibits by 50% the fixation of the tritiated product R. The relative affinity of the test product (ARL) was determined by the formula [formula] and the results are reported in Table I.

[2] = target: T2, prostatic reception of testosterone (Rattus norvegicus, UniProt P15207); assay: Androgenic activity by hormonal receptor method (displacement of tritiated product R in rat prostate cytosol); type: binding; conditions: for relative affinity of the test product (ARL), androgenic: castrated male rat prostate cytosol, 0° C., 2 hours, testosterone = 100; for affinity for prostatic reception of testosterone (in words) / androgenic activity (in words): conclusion from Table II
T2 construct: The prostate was recovered from male rats castrated 24 hours earlier and was homogenized; from tissue; host or cells: prostate cytosol (105,000 g supernatant) of male rats castrated 24 hours earlier
T2 sequence (P15207 1-902): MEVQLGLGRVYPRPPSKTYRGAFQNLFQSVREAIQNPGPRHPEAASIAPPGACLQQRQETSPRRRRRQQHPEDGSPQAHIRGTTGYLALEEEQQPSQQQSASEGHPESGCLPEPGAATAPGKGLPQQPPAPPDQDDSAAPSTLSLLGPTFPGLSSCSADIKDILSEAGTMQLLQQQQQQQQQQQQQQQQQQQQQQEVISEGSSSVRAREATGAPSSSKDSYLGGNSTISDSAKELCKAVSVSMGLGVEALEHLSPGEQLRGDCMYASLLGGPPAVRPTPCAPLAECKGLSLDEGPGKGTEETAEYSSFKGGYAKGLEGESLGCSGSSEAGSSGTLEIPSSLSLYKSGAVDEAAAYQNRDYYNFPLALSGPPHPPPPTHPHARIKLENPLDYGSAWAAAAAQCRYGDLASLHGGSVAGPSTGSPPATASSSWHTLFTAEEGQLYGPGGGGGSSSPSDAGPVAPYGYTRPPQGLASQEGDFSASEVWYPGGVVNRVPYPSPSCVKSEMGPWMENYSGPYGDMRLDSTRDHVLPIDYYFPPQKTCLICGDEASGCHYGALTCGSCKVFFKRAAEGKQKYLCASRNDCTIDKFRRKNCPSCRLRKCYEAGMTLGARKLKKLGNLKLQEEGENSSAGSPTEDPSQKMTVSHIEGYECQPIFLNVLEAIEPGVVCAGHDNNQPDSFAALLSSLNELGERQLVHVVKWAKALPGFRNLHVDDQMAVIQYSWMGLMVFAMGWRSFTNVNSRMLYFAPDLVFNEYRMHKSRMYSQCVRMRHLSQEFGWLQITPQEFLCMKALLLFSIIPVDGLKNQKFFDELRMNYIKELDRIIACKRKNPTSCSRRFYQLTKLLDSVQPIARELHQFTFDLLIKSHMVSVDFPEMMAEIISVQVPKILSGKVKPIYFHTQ
Description: This test also used the method of Raynaud et al discussed above. The prostate was recovered from male rats castrated 24 hours earlier and was homogenized in a buffer containing 10 mM of tromethamine and 0.25 M of saccharose and sufficient hydrochloric acid for a pH of 7.4 The homogenate was centrifuged at 105,000 g for one hour and the surnageant liquid or cytosol was adjusted to a dilution of 1/5 (weight/volume).
The radioactivity of the tied tritiated product was determined after 2 hours by absorption technique on carbondextran (1.25%-0.625%). […] B/T max. is the percentage of tied tritiated product R when the product is not added and B/T min. is the percentage of tied tritiated product R when the maximum amount of cold product R is added.

[3] = tested on: proliferation of endometric lacework (uterus); assay: In vivo progestomimetic activity, Clauberg test on immature rabbits; design: species or system rabbit; conditions: for progestomimetic activity in vivo (in words): compared with ethynylnortestosterone, Table III; for endometrial proliferation, MacPhail Units: subcutaneous, 5 days
Description: The progestomimetic activity of products A, B and C were determined by the Clauberg test on immature rabbits previously sensibilized by subcutaneous administration of estradiol for 5 days at a daily dose of 5 μg. The test products were used in solution in olive oil containing 5% of benzyl alcohol and were subcutaneously administered for 5 days at different doses. The animals were killed on the 6th day and the uterus was removed to determine the proliferation of endometric lacework which is characteristic of progestomimetic activity. The results were compared with ethynylnortesterone administered in the same method in the same solvent. The results were expressed in MacPhail units in Table III.

## C[C@]12C=CC3=C4CCC(=O)C=C4CC[C@H]3[C@@H]1CC[C@@]2(O)c1ccccc1 [Product C, 17α-phenyl-Δ^4,9,11-estratriene-17β-ol-3-one]
[1]; compared with progesterone
  activity weaker than progesterone: about 3 times
[1]
  progestomimetic activity (in words): progestomimetics
  relative affinity of the test product (ARL), progestomimetic: 27
[2]
  relative affinity of the test product (ARL), androgenic: ≤ 0.1
  affinity for prostatic reception of testosterone (in words): practically devoid of an affinity
  androgenic activity (in words): devoid of adrogenic activity
[3]
  progestomimetic activity in vivo (in words): about the same order of activity as ethynylnortestosterone
[3]; dose 1 mg
  endometrial proliferation, MacPhail Units: 1.8 MacPhail Units
[3]; dose 2 mg
  endometrial proliferation, MacPhail Units: 2.9 MacPhail Units
[3]; dose 200 γ
  endometrial proliferation, MacPhail Units: 0.8 MacPhail Units

## C[C@]12CC[C@H]3[C@@H](CCC4=CC(=O)CC[C@@H]43)[C@@H]1CC[C@@]2(O)c1ccccc1 [Product A, 17α-phenyl-Δ^4-estrene-17β-ol-3-one]
[1]; compared with progesterone
  affinity for specific uterine reception of progesterone (in words): comparable to that of progesterone
[1]
  progestomimetic activity (in words): progestomimetics
  relative affinity of the test product (ARL), progestomimetic: 80
[2]
  relative affinity of the test product (ARL), androgenic: 0.3
  affinity for prostatic reception of testosterone (in words): practically devoid of an affinity
  androgenic activity (in words): devoid of adrogenic activity
[3]
  progestomimetic activity in vivo (in words): progestomimetic activity greater than ethynylnortestosterone
[3]; dose 100 γ
  endometrial proliferation, MacPhail Units: 2 MacPhail Units
[3]; dose 500 γ
  endometrial proliferation, MacPhail Units: 2.7 MacPhail Units
[3]; dose 2500 γ
  endometrial proliferation, MacPhail Units: 3 MacPhail Units

## C[C@]12CCC3=C4CCC(=O)C=C4CC[C@H]3[C@@H]1CC[C@@]2(O)c1ccccc1 [Product B, 17α-phenyl-Δ^4,9-estradiene-17β-ol-3-one]
[1]; compared with progesterone
  activity weaker than progesterone: about 3 times
[1]
  progestomimetic activity (in words): progestomimetics
  relative affinity of the test product (ARL), progestomimetic: 37
[2]
  relative affinity of the test product (ARL), androgenic: 0.2
  affinity for prostatic reception of testosterone (in words): practically devoid of an affinity
  androgenic activity (in words): devoid of adrogenic activity
[3]
  progestomimetic activity in vivo (in words): progestomimetic activity greater than ethynylnortestosterone
[3]; dose 1 mg
  endometrial proliferation, MacPhail Units: 2.8 MacPhail Units
[3]; dose 2 mg
  endometrial proliferation, MacPhail Units: 3.0 MacPhail Units
[3]; dose 200 γ
  endometrial proliferation, MacPhail Units: 1 MacPhail Units

## C#C[C@]1(O)CC[C@H]2[C@@H]3CCC4=CC(=O)CC[C@@H]4[C@H]3CC[C@@]21C [ethynylnortestosterone, reference compound]
[3]; dose 100 γ
  endometrial proliferation, MacPhail Units: 1.2 MacPhail Units
[3]; dose 500 γ
  endometrial proliferation, MacPhail Units: 1.5 MacPhail Units
[3]; dose 2500 γ
  endometrial proliferation, MacPhail Units: 2 MacPhail Units
